Patent US10045529B2, “Quat cleaner with glycerin ether ethoxylates” (Ecolab USA Inc., priority 2012, dated 2018)

Assays:
[1] = Tergotometer detergency test on EMPA soiled swatches
Method: Laundry detergent compositions using 500 ppm sodium hydroxide (e.g. caustic) and the indicated conventional Surfonic® surfactant or the glycerin ether ethoxylate solfactant according to the invention were evaluated. A tergotometer test procedure was employed to measure detergency of test compositions according to the invention. A tergotometer along with 500 mL pots and water bath were employed. First, unwashed swatches from the lot numbers to be used in the test are read on the Konica Minolta Spectrophotometer model CM-3600d to establish the average initial (before washing) L value. A sampling of each swatch type is used. The desired wash temperature is programmed into the Tergotometer and its water bath is allowed to heat up to that temperature. 500 mL of the desired water type is added to each Tergotometer pot and allowed to equilibrate to the desired temperature.
The following standard, commercially available (EMPA) soiled swatches were used for baseline testing in the Examples, as shown in Table 9.
The test detergent compositions are weighed out and added to the Tergotometer pots. Various detergent compositions as shown in Tables 10-11 were employed under varying water conditions, including 5 grain water (Table 10) and 17 grain water (Table 11).
The detergent systems were agitated for 10 minutes to mix and dissolve in the water sources. The agitation/mixing speed RPM was adjusted to 200. The temperature of the detergent compositions dissolved in water was 60° C., unless indicated otherwise in the Figures/Examples set forth below. The swatches are added quickly to their respective pots in a left to right sequence in order to minimize differences in exposure time to the detergent systems. A wash run is completed for at least 10 minutes. At the end of the run, the swatches are removed from the pots quickly in a left to right sequence using a forceps and are transferred into 500 mL-1 liter of cool water to rinse. After rinsing with cold tap water, excess water from the swatches was removed by squeezing the swatches. The process was repeated with rinsing and squeezing excess water at least 2 more times. The swatches were air dried on a visa napkin or paper towel on the lab bench.
The swatches were then read on the HunterLab Color Quest and calculate % soil removal (i.e. whiteness) from the difference between the initial (before washing) L value and the final L value (after washing). Percent Soil Removal=(L after−L initial)/(96−L initial)*100 is represented as L*.

[2] = Cloud point of solfactants in various solutions; format: physicochemical; details: 1% in 10% NaCl
From the text: Various 2-Ethyl Hexanol Glycerin Ether Ethoxylate solfactants were produced using ethoxylation by a KOH Catalyst.
Further the cloud point data for the solfactants in various solutions is shown. The cloud point temperatures show the temperature above which a surfactant-rich phase separates from an aqueous solution. There is a clear relationship between the cloud point and the average EO content of the glycerin ether ethoxylate; as the ethylene oxide content of the solfactant increases, the cloud point and water solubility increase. As the carbon number on the molecule increases, a greater number of moles of ethylene oxide are required to be added to the molecule to retain the same cloud point.

[3] = Glewwe foam meter foam height test; format: physicochemical; details: 50 ppm
From the text: Foam testing was completed for the ethoxylated glycerine ether solfactants in comparison to commercially-available ethoxylated alcohols using a Glewwe foam meter. A Glewwe foam meter provides a dynamic foam test rather than a static test, which is considered more appropriate for simulation of industrial conditions. The equipment and general procedure for the Glewwe form test is described in U.S. Pat. Nos. 3,899,387 and 5,447,648, which are herein incorporated by reference in its entirety. The foam meter itself consists of a thermostated reservoir and a pump to recirculate the aqueous medium with foaming tendencies. The foam developed by the action of the aqueous stream impinging on the surface in the reservoir causes foam formation.
The foam heights of the tested compositions were determined using the following method. First 3000 mL of city water (e.g. 17 gpg) was filled into the Glewwe cylinder. The pump was turned on, pressure adjusted to 6 psi, and heated water to 140° F. The commercially available surfactant (or the solfactant according to the invention) was added at 50 ppm in the cylinder and the timer was started. Foam height was recorded at 1 minute and 5 minutes. After 5 minutes the pump was stopped and foam stability characteristics were observed. The cylinder was then drained, rinsed, and the methods repeated.

Gel formation with water = format: physicochemical
From the text: The low foam profiles and low viscosity of the glycerin ether ethoxylate solfactants as shown in Examples 5 and 6 were further compared to gel curves of conventional ethoxylated alcohols (e.g. Tomadol surfactants). […]

Substance: 2-Ethyl Hexanol Glycerin Ether Ethoxylate (7 moles) [2EHGE (7 EO)]
- % removal EMPA 116 ([1]; 5 gpg water, 50 ppm, 500 ppm sodium hydroxide, 60° C., EMPA 116 (Blood, milk and ink, Cotton)): 33%
- % removal EMPA 101 ([1]; 5 gpg, 50 ppm, EMPA 101 (olive oil/carbon black, Cotton)): 38%
- % removal EMPA 104 ([1]; 5 gpg, 50 ppm, EMPA 104 (olive oil/carbon black, Cotton blend)): 47%
- % removal EMPA 106 ([1]; 5 gpg, 50 ppm, EMPA 106 (mineral oil, Cotton)): 59.88%
- % removal EMPA 111 ([1]; 5 gpg, 50 ppm, EMPA 111 (Pig blood, Cotton)): 52%
- % removal EMPA 114 ([1]; 5 gpg, 50 ppm, EMPA 114 (Red wine, Cotton)): 1%
- % removal EMPA 101 ([1]; 5 gpg, 100 ppm, EMPA 101): 25%
- % removal EMPA 104 ([1]; 5 gpg, 100 ppm, EMPA 104): 17%
- % removal EMPA 106 ([1]; 5 gpg, 100 ppm, EMPA 106): 46.8%
- % removal EMPA 111 ([1]; 5 gpg, 100 ppm, EMPA 111): 49%
- % removal EMPA 114 ([1]; 5 gpg, 100 ppm, EMPA 114): −3%
- % removal EMPA 116 ([1]; 5 gpg, 100 ppm, EMPA 116): 19%
- % removal EMPA 101 ([1]; 17 gpg, 50 ppm, EMPA 101): 20%
- % removal EMPA 104 ([1]; 17 gpg, 50 ppm, EMPA 104): 15%
- % removal EMPA 106 ([1]; 17 gpg, 50 ppm, EMPA 106): 11%
- % removal EMPA 111 ([1]; 17 gpg, 50 ppm, EMPA 111): 32%
- % removal EMPA 114 ([1]; 17 gpg, 50 ppm, EMPA 114): 0%
- % removal EMPA 116 ([1]; 17 gpg, 50 ppm, EMPA 116): 16%
- % removal EMPA 101 ([1]; 17 gpg, 100 ppm, EMPA 101): 20%
- % removal EMPA 104 ([1]; 17 gpg, 100 ppm, EMPA 104): 17%
- % removal EMPA 106 ([1]; 17 gpg, 100 ppm, EMPA 106): 9%
- % removal EMPA 111 ([1]; 17 gpg, 100 ppm, EMPA 111): 35%
- % removal EMPA 114 ([1]; 17 gpg, 100 ppm, EMPA 114): 0%
- % removal EMPA 116 ([1]; 17 gpg, 100 ppm, EMPA 116): 17%
- Cloud Point Data 1% in 10% NaCl [2]: 78 °C
- OBSERVATIONS (foam stability after pump stopped) ([3]; after 5 minutes pump stopped): Unstable - Breaks
- Foam Height (in) @ 1 MIN ([3]; city water 17 gpg, 140° F., 6 psi, 1 minute): 5 in
- Foam Height (in) @ 5 MIN ([3]; city water 17 gpg, 140° F., 6 psi, 5 minutes): 4.5 in
- Gel Formation (Gel formation with water; 20%/80%): None
- Gel Formation (Gel formation with water; 30%/70%): None
- Gel Formation (Gel formation with water; 40%/60%): None
- Gel Formation (Gel formation with water; 50%/50%): None
- Gel Formation (Gel formation with water; 60%/40%): None
- Gel Formation (Gel formation with water; 70%/30%): None
- Gel Formation (Gel formation with water; 80%/20%): None
- Gel Formation (Gel formation with water; 90%/10%): None
- Gel Formation (Gel formation with water; Glycerin Ether Ethoxylate %/Water % 10%/90%): None
